Laboratory results published in PubChem BioAssay AID256 (DTP/NCI, 2004).
Where “and” joins values, the source holds several entries; their conditions need not be identical. Identical values can stand only once. Inconclusive results and toxic doses are left out. Residues, ends and D or L forms follow the SMILES beside them.

Test system: CD2F1 mice, L1210 leukemia ip, survival T/C
Assay: NCI In Vivo Anticancer Drug Screen. Data for tumor model L1210 Leukemia (intraperitoneal) in CD2F1 (CDF1) mice
Settings: higher = longer survival
Outline: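 Antitumor effect is scored in animals hosting a serially transplanted tumor. Values compare compound-dosed animals against vehicle-only controls as a simple quotient.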

[1] = endpoint: mean survival time, dose: 100.0 mg/kg/injection, schedule: Q01DX009 (ip), vehicle: saline with Tween-80
[2] = endpoint: mean survival time, dose: 200.0 mg/kg/injection, schedule: Q01DX009 (ip), vehicle: saline with Tween-80
[3] = endpoint: mean survival time, dose: 400.0 mg/kg/injection, schedule: Q01DX009 (ip), vehicle: saline with Tween-80

CCCSc1ncnc2nc[nH]c12
T/C (endpoint: median survival time, dose: 31.25 mg/kg/injection, schedule: Q01DX009 (ip), vehicle: saline): 100 % of control
T/C (endpoint: median survival time, dose: 62.5 mg/kg/injection, schedule: Q01DX009 (ip), vehicle: saline): 114 % of control and 111 % of control
T/C (endpoint: median survival time, dose: 125.0 mg/kg/injection, schedule: Q01DX009 (ip), vehicle: saline): 121 % of control and 111 % of control
T/C (endpoint: median survival time, dose: 250.0 mg/kg/injection, schedule: Q01DX009 (ip), vehicle: saline): 122 % of control

CC(O)C1OC(n2cnc3c(=O)[nH]cnc32)CC1O (stereo unspecified)
T/C (endpoint: median survival time, dose: 12.5 mg/kg/injection, schedule: Q01DX005 (ip), vehicle: water): 100 % of control
T/C (endpoint: median survival time, dose: 25.0 mg/kg/injection, schedule: Q01DX005 (ip), vehicle: water): 100 % of control
T/C (endpoint: median survival time, dose: 50.0 mg/kg/injection, schedule: Q01DX005 (ip), vehicle: water): 104 % of control
T/C (endpoint: median survival time, dose: 100.0 mg/kg/injection, schedule: Q01DX005 (ip), vehicle: water): 102 % of control
T/C (endpoint: median survival time, dose: 200.0 mg/kg/injection, schedule: Q01DX005 (ip), vehicle: water): 102 % of control

CCOC(=O)C(C(C)=O)C(C)C (stereo unspecified)
T/C (endpoint: mean survival time, dose: 25.0 mg/kg/injection, schedule: Q01DX009 (ip), vehicle: water): 95 % of control
T/C (endpoint: mean survival time, dose: 50.0 mg/kg/injection, schedule: Q01DX009 (ip), vehicle: water): 102 % of control
T/C (endpoint: mean survival time, dose: 100.0 mg/kg/injection, schedule: Q01DX009 (ip), vehicle: water): 102 % of control
T/C (endpoint: mean survival time, dose: 200.0 mg/kg/injection, schedule: Q01DX009 (ip), vehicle: water): 97 % of control
T/C (endpoint: mean survival time, dose: 400.0 mg/kg/injection, schedule: Q01DX009 (ip), vehicle: water): 97 % of control

c1ccc2[nH]c(CN(CCN(Cc3nc4ccccc4[nH]3)Cc3nc4ccccc4[nH]3)Cc3nc4ccccc4[nH]3)nc2c1
T/C (endpoint: median survival time, dose: 3.12 mg/kg/injection, schedule: Q01DX005 (ip), vehicle: DMSO): 100 % of control
T/C (endpoint: median survival time, dose: 6.25 mg/kg/injection, schedule: Q01DX005 (ip), vehicle: DMSO): 100 % of control

O=C(/C=C/c1ccc(Cl)c(Cl)c1)/C=C/c1ccc(Cl)c(Cl)c1
T/C (endpoint: mean survival time, dose: 50.0 mg/kg/injection, schedule: Q01DX009 (ip), vehicle: Klucel (hydroxypropylcellulose) (HPC)): 98 % of control
T/C (endpoint: mean survival time, dose: 100.0 mg/kg/injection, schedule: Q01DX009 (ip), vehicle: Klucel (hydroxypropylcellulose) (HPC)): 94 % of control
T/C (endpoint: mean survival time, dose: 200.0 mg/kg/injection, schedule: Q01DX009 (ip), vehicle: Klucel (hydroxypropylcellulose) (HPC)): 90 % of control

Clc1ccc(CSCc2ccc(Cl)cc2Cl)c(Cl)c1
T/C [1]: 96 % of control
T/C (endpoint: mean survival time, dose: 100.0 mg/kg/injection, schedule: Q04DX003 (ip), vehicle: saline with Tween-80): 100 % of control
T/C [2]: 100 % of control
T/C (endpoint: mean survival time, dose: 200.0 mg/kg/injection, schedule: Q04DX003 (ip), vehicle: saline with Tween-80): 104 % of control
T/C [3]: 98 % of control
T/C (endpoint: mean survival time, dose: 400.0 mg/kg/injection, schedule: Q04DX003 (ip), vehicle: saline with Tween-80): 100 % of control

CC(O)C(NC(=O)C(N)CCCN=C(N)N)C(=O)NC(Cc1ccccc1)C(=O)O (stereo not drawn) (H-Arg-Thr-Phe-OH; configuration not given here)
T/C (endpoint: mean survival time, dose: 12.5 mg/kg/injection, schedule: Q04DX002 (ip), vehicle: saline): 98 % of control
T/C (endpoint: mean survival time, dose: 25.0 mg/kg/injection, schedule: Q04DX002 (ip), vehicle: saline): 95 % of control
T/C (endpoint: mean survival time, dose: 50.0 mg/kg/injection, schedule: Q04DX002 (ip), vehicle: saline): 98 % of control

CC(CN)OS(=O)(=O)O (stereo unspecified)
T/C (endpoint: mean survival time, dose: 50.0 mg/kg/injection, schedule: Q01DX009 (ip), vehicle: saline with Tween-80): 100 % of control
T/C (endpoint: mean survival time, dose: 50.0 mg/kg/injection, schedule: Q04DX003 (ip), vehicle: saline): 103 % of control
T/C [1]: 105 % of control
T/C (endpoint: mean survival time, dose: 100.0 mg/kg/injection, schedule: Q04DX003 (ip), vehicle: saline): 106 % of control
T/C [2]: 101 % of control
T/C (endpoint: mean survival time, dose: 200.0 mg/kg/injection, schedule: Q04DX003 (ip), vehicle: saline): 97 % of control
T/C [3]: 101 % of control
T/C (endpoint: mean survival time, dose: 400.0 mg/kg/injection, schedule: Q04DX003 (ip), vehicle: saline): 105 % of control

C1CN1c1nc(N2CC2)nc(N2CC2)n1
T/C (endpoint: mean survival time, dose: 0.05 mg/kg/injection, schedule: Q01DX009 (ip), vehicle: saline): 100 % of control
T/C (endpoint: mean survival time, dose: 0.06 mg/kg/injection, schedule: Q01DX009 (ip), vehicle: saline): 150 % of control
T/C (endpoint: mean survival time, dose: 0.06 mg/kg/injection, schedule: Q03HX008 (ip), vehicle: saline): 100 % of control
T/C (endpoint: mean survival time, dose: 0.06 mg/kg/injection, schedule: Q03HX016 (ip), vehicle: saline): 95 % of control and 97 % of control
T/C (endpoint: mean survival time, dose: 0.06 mg/kg/injection, schedule: Q03HX024 (ip), vehicle: saline): 113 % of control
T/C (endpoint: mean survival time, dose: 0.1 mg/kg/injection, schedule: Q01DX009 (ip), vehicle: saline): 107 % of control
T/C (endpoint: mean survival time, dose: 0.12 mg/kg/injection, schedule: Q01DX009 (ip), vehicle: saline): 215 % of control and 100 % of control
T/C (endpoint: mean survival time, dose: 0.13 mg/kg/injection, schedule: Q03HX008 (ip), vehicle: saline): 110 % of control
T/C (endpoint: mean survival time, dose: 0.13 mg/kg/injection, schedule: Q03HX016 (ip), vehicle: saline): 104 % of control and 110 % of control
T/C (endpoint: mean survival time, dose: 0.13 mg/kg/injection, schedule: Q03HX024 (ip), vehicle: saline): 124 % of control
T/C (endpoint: mean survival time, dose: 0.2 mg/kg/injection, schedule: Q01DX009 (ip), vehicle: saline): 117 % of control
T/C (endpoint: mean survival time, dose: 0.25 mg/kg/injection, schedule: Q01DX005 (ip), vehicle: saline): 117 % of control
T/C (endpoint: mean survival time, dose: 0.25 mg/kg/injection, schedule: Q01DX009 (ip), vehicle: saline): 109 % of control
T/C (endpoint: mean survival time, dose: 0.25 mg/kg/injection, schedule: Q03HX024 (ip), vehicle: saline): 174 % of control
T/C (endpoint: mean survival time, dose: 0.4 mg/kg/injection, schedule: Q01DX009 (ip), vehicle: saline): 155 % of control
T/C (endpoint: mean survival time, dose: 0.5 mg/kg/injection, schedule: Q01DX001 (ip), vehicle: saline): 114 % of control
T/C (endpoint: mean survival time, dose: 0.5 mg/kg/injection, schedule: Q01DX005 (ip), vehicle: saline): 150 % of control
T/C (endpoint: mean survival time, dose: 0.5 mg/kg/injection, schedule: Q01DX007 (ip), vehicle: saline): 183 % of control
T/C (endpoint: mean survival time, dose: 0.5 mg/kg/injection, schedule: Q03HX008 (ip), vehicle: saline): 185 % of control
T/C (endpoint: mean survival time, dose: 0.5 mg/kg/injection, schedule: Q03HX016 (ip), vehicle: saline): 183 % of control
T/C (endpoint: mean survival time, dose: 0.5 mg/kg/injection, schedule: Q03HX024 (ip), vehicle: saline): 101 % of control
T/C (endpoint: mean survival time, dose: 0.5 mg/kg/injection, schedule: Q08DX002 (ip), vehicle: saline): 107 % of control
T/C (endpoint: mean survival time, dose: 0.5 mg/kg/injection, schedule: Q11DX002 (ip), vehicle: saline): 100 % of control
T/C (endpoint: mean survival time, dose: 1.0 mg/kg/injection, schedule: Q01DX001 (ip), vehicle: saline): 190 % of control
T/C (endpoint: mean survival time, dose: 1.0 mg/kg/injection, schedule: Q01DX005 (ip), vehicle: saline): 86 % of control
T/C (endpoint: mean survival time, dose: 1.0 mg/kg/injection, schedule: Q01DX007 (ip), vehicle: saline): 92 % of control
T/C (endpoint: mean survival time, dose: 1.0 mg/kg/injection, schedule: Q03DX003 (ip), vehicle: saline): 183 % of control
T/C (endpoint: mean survival time, dose: 1.0 mg/kg/injection, schedule: Q08DX002 (ip), vehicle: saline): 204 % of control
T/C (endpoint: mean survival time, dose: 1.0 mg/kg/injection, schedule: Q11DX002 (ip), vehicle: saline): 97 % of control
T/C (endpoint: mean survival time, dose: 2.0 mg/kg/injection, schedule: Q01DX001 (ip), vehicle: saline): 154 % of control and 157 % of control
T/C (endpoint: mean survival time, dose: 2.0 mg/kg/injection, schedule: Q03DX003 (ip), vehicle: saline): 211 % of control
T/C (endpoint: mean survival time, dose: 2.0 mg/kg/injection, schedule: Q08DX002 (ip), vehicle: saline): 184 % of control
T/C (endpoint: mean survival time, dose: 2.0 mg/kg/injection, schedule: Q11DX002 (ip), vehicle: saline): 100 % of control
T/C (endpoint: mean survival time, dose: 3.0 mg/kg/injection, schedule: Q01DX001 (ip), vehicle: saline): 169 % of control and 338 % of control
T/C (endpoint: mean survival time, dose: 4.0 mg/kg/injection, schedule: Q01DX001 (ip), vehicle: saline): 120 % of control
T/C (endpoint: mean survival time, dose: 4.0 mg/kg/injection, schedule: Q08DX002 (ip), vehicle: saline): 102 % of control
T/C (endpoint: mean survival time, dose: 4.0 mg/kg/injection, schedule: Q11DX002 (ip), vehicle: saline): 153 % of control
T/C (endpoint: mean survival time, dose: 62.0 micrograms/kg/injection, schedule: Q01DX009 (ip), vehicle: saline): 123 % of control
T/C (endpoint: mean survival time, dose: 125.0 micrograms/kg/injection, schedule: Q01DX009 (ip), vehicle: saline): 173 % of control
T/C (endpoint: median survival time, dose: 0.25 mg/kg/injection, schedule: Q01DX009 (ip), vehicle: saline): 100 % of control
T/C (endpoint: median survival time, dose: 0.5 mg/kg/injection, schedule: Q01DX009 (ip), vehicle: saline): 150 % of control and 185 % of control
T/C (endpoint: median survival time, dose: 1.0 mg/kg/injection, schedule: Q01DX009 (ip), vehicle: saline): 121 % of control and 100 % of control

c1ccc2c(c1)OCC(CN1CCc3[nH]c4ccccc4c3C1)O2 (stereo unspecified)
T/C (endpoint: mean survival time, dose: 50.0 mg/kg/injection, schedule: Q01DX001 (ip), vehicle: saline with Tween-80): 106 % of control
T/C (endpoint: mean survival time, dose: 100.0 mg/kg/injection, schedule: Q01DX001 (ip), vehicle: saline with Tween-80): 98 % of control
T/C (endpoint: mean survival time, dose: 200.0 mg/kg/injection, schedule: Q01DX001 (ip), vehicle: saline with Tween-80): 93 % of control
